These results are taken from patent US8796256B2 (Janssen Pharmaceutica NV, priority 2010, dated 2014).

The structures appear in SMILES notation.

The assay deals with T1, ERR1 (also known as ERR-α or ERR-1) (Homo sapiens, UniProt P11474).
T1 sequence (P11474 193-421 limits assumed): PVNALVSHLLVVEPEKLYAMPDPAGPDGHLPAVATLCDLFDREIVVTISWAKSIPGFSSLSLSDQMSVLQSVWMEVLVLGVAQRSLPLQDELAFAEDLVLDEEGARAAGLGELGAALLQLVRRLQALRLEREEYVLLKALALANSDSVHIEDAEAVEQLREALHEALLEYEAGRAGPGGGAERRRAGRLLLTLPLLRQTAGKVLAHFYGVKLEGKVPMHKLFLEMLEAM
Kind of assay: TR-FRET assay (disruption of co-activator peptide binding to ERR1 LBD). Type of assay: biochemical. Conditions: 6 nM 6His-ERR1LBD, 6 nM GST-SRC-2 peptide; average of 3 independent experiments. Put shortly:
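Homogeneous TR-FRET measuring displacement of GST-hSRC2 co-activator peptide (6 nM) from His-tagged ERR1 LBD (6 nM), detected with α-GST Eu cryptate (30 nM) and α-His-XL665 (7.5 nM). Buffer 25 mM Tris pH 8, 2.5 mM Hepes, 20 mM KCl, 1 mM DTT, 0.05 mg/mL delipidated BSA; equilibration 4-18 h at 25° C. Hyperbolic dose-response fit, mean of 3 experiments.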
On to `O=C1S/C(=C\c2ccc3c(c2)nnn3Cc2ccc(Cl)cc2C(F)(F)F)C(=O)N1CCN1CCCC1` [Compound 258, (5Z)-5-({1-[4-Chloro-2-(trifluoromethyl)benzyl]-1H-benzotriazol-5-yl}methylidene)-3-(2-pyrrolidin-1-ylmethyl)-1,3-thiazolidine-2,4-dione], for which the EC50 stood at 24 nM.

Consider `O=C1S/C(=C\c2ccc3c(ccn3Cc3ccc(C(F)(F)F)cc3C(F)(F)F)c2)C(=O)N1CCO` [Compound 242, (5Z)-5-[(1-{[2,4-Bis(trifluoromethyl)phenyl]methyl}-1H-indol-5-yl)methylidene]-3-(2-hydroxyethyl)-1,3-thiazolidine-2,4-dione], for which the EC50 turned out to be 100 nM.

`O=C1S/C(=C\c2ccc3c(cnn3Cc3ccc(Cl)cc3C(F)(F)F)c2)C(=O)N1[C@@H]1CCNC[C@H]1F` [Compound 381, (5Z)-5-({1-[4-Chloro-2-(trifluoromethyl)benzyl]-1H-indazol-5-yl}methylidene)-3-[(3R,4R)-3-fluoropiperidin-4-yl]-1,3-thiazolidine-2,4-dione] gave an EC50 of 28 nM.

Regarding `CNN1C(=O)S/C(=C\c2ccc3c(cnn3Cc3ccc(Cl)cc3C(F)(F)F)c2)C1=O` [Compound 358, (5Z)-5-({1-[4-Chloro-2-(trifluoromethyl)benzyl]-1H-indazol-5-yl}methylidene)-3-(methylamino)-1,3-thiazolidine-2,4-dione], a half-maximal response (EC50) required 22 nM.

The compound `O=C1S/C(=C\c2ccc3c(ccn3Cc3ccc(F)cc3C(F)(F)F)c2)C(=O)N1CCN1CCOCC1` [Compound 249, (5Z)-5-[(1-{[4-Fluoro-2-(trifluoromethyl)phenyl]methyl}-1H-indol-5-yl)methylidene]-3-(2-morpholin-4-ylethyl)-1,3-thiazolidine-2,4-dione] showed a 50% effective concentration (EC50) of 350 nM.

With `CC(C)(C)NS(=O)(=O)CN1C(=O)S/C(=C\c2ccc3c(cnn3Cc3ccc(Cl)cc3C(F)(F)F)c2)C1=O` [Compound 160, N-tert-Butyl-1-[(5Z)-5-({1-[4-chloro-2-(trifluoromethyl)benzyl]-1H-indazol-5-yl}methylidene)-2,4-dioxo-1,3-thiazolidin-3-yl]methanesulfonamide], it took 77 nM to reach a half-maximal effect (EC50).

`O=C1S/C(=C\c2ccc3c(cnn3Cc3ccc(C(F)(F)F)cc3C(F)(F)F)c2)C(=O)N1C1CCNCC1` [Compound 67, (5Z)-5-({1-[2,4-Bis(trifluoromethyl)benzyl]-1H-indazol-5-yl}methylidene)-3-piperidin-4-yl-1,3-thiazolidine-2,4-dione] yielded an EC50 of 620 nM.

As for `O=C1S/C(=C\c2ccc3c(cnn3Cc3ccc(Cl)cc3C(F)(F)F)c2)C(=O)N1CCNCCO` [Compound 52, (5Z)-5-({1-[4-Chloro-2-(trifluoromethyl)benzyl]-1H-indazol-5-yl}methylidene)-3-{2-[(2-hydroxyethyl)amino]ethyl}-1,3-thiazolidine-2,4-dione], it took 27 nM to reach a half-maximal effect (EC50).

`O=C(O)c1ccccc1CN1C(=O)S/C(=C\c2ccc3c(cnn3Cc3ccc(Cl)cc3C(F)(F)F)c2)C1=O` [Compound 379, 2-{[(5Z)-5-({1-[4-Chloro-2-(trifluoromethyl)benzyl]-1H-indazol-5-yl}methylidene)-2,4-dioxo-1,3-thiazolidin-3-yl]methyl}benzoic acid]: a half-maximal effect (EC50) was put at 21 nM.

Take `CN1C[C@@H](O)[C@H](N2C(=O)S/C(=C\c3ccc4c(cnn4Cc4ccc(Cl)cc4C(F)(F)F)c3)C2=O)C1` (relative stereo) [Compound 318]: it took 24 nM to reach a half-maximal effect (EC50).

Compound `CN1CCC[C@H]1CN1C(=O)S/C(=C\c2ccc3c(cnn3Cc3ccc(C(F)(F)F)cc3C(F)(F)F)c2)C1=O` [Compound 69, (5Z)-5-({1-[2,4-Bis(trifluoromethyl)benzyl]-1H-indazol-5-yl}methylidene)-3-{[(2S)-1-methylpyrrolidin-2-yl]methyl}-1,3-thiazolidine-2,4-dione] displayed an EC50 of 23 nM.

In the case of `COC(=O)CN1C(=O)S/C(=C\c2ccc3c(cnn3[C@H]3CCc4cc(Cl)ccc43)c2)C1=O` [Compound 171, Methyl [(5Z)-5-({1-[(1S)-5-chloro-2,3-dihydro-1H-inden-1-yl]-1H-indazol-5-yl}methylidene)-2,4-dioxo-1,3-thiazolidin-3-yl]acetate], a half-maximal response (EC50) required 29 nM.

`CN(C)S(=O)(=O)NC(=O)CN1C(=O)S/C(=C\c2ccc3c(cnn3Cc3ccc(C(F)(F)F)cc3C(F)(F)F)c2)C1=O` [Compound 88, 2-[(5Z)-5-({1-[2,4-Bis(trifluoromethyl)benzyl]-1H-indazol-5-yl}methylidene)-2,4-dioxo-1,3-thiazolidin-3-yl]-N-(dimethylsulfamoyl)acetamide] came in with an EC50 of 134 nM.

In the case of `CS(=O)(=O)NN1C(=O)S/C(=C\c2cc3cnn(Cc4ccc(Cl)cc4C(F)(F)F)c3cc2F)C1=O` [Compound 371, N-[(5Z)-5-({1-[4-Chloro-2-(trifluoromethyl)benzyl]-6-fluoro-1H-indazol-5-yl}methylidene)-2,4-dioxo-1,3-thiazolidin-3-yl]methanesulfonamide], the EC50 was 9 nM.

Regarding `O=C1S/C(=C\c2ccc3c(cnn3Cc3ccc(Cl)cc3C(F)(F)F)c2)C(=O)N1C1(C(=O)O)CCOCC1` [Compound 227, 4-[(5Z)-5-({1-[4-Chloro-2-(trifluoromethyl)benzyl]-1H-indazol-5-yl}methylidene)-2,4-dioxo-1,3-thiazolidin-3-yl]etrahydro-2H-pyran-4-carboxylic acid], a half-maximal response (EC50) required 53 nM.

`O=C1S/C(=C\c2ccc3c(cnn3Cc3ccc(Cl)cc3C(F)(F)F)c2)C(=O)N1CCN1CCC(C(O)CO)CC1` (centres unmarked) [Compound 283, (5Z)-5-({1-[4-Chloro-2-(trifluoromethyl)benzyl]-1H-indazol-5-yl}methylidene)-3-{2-[4-(1,2-dihydroxyethyl)piperidin-1-yl]ethyl}-1,3-thiazolidine-2,4-dione]: the EC50 worked out at 527 nM.

For the compound `O=C1S/C(=C\c2ccc3c(cnn3Cc3ccc(Cl)cc3C(F)(F)F)c2)C(=O)N1[C@@H]1CNC[C@H]1O` (relative stereo) [Compound 316, (5Z)-5-({1-[4-Chloro-2-(trifluoromethyl)benzyl]-1H-indazol-5-yl}methylidene)-3-[trans-4-hydroxypyrrolidin-3-yl]-1,3-thiazolidine-2,4-dione], a half-maximal response (EC50) required 36 nM.

Turning to `O=C1S/C(=C\c2ccc3c(cnn3Cc3ccc(Cl)cc3C(F)(F)F)c2)C(=O)N1CC1CNC1` [Compound 101, (5Z)-3-(Azetidin-3-ylmethyl)-5-({1-[4-chloro-2-(trifluoromethyl)benzyl]-1H-indazol-5-yl}methylidene)-1,3-thiazolidine-2,4-dione], the EC50 is 68 nM.

For `O=C1S/C(=C\c2ccc3c(cnn3Cc3ccc(Cl)cc3C(F)(F)F)c2)C(=O)N1C[C@@H]1CCCN1` [Compound 145, (5Z)-5-({1-[4-Chloro-2-(trifluoromethyl)benzyl]-1H-indazol-5-yl}methylidene)-3-[(2S)-pyrrolidin-2-ylmethyl]-1,3-thiazolidine-2,4-dione], the EC50 is 27 nM.

In turn, `O=C1CNCCC1N1C(=O)S/C(=C\c2ccc3c(cnn3Cc3ccc(Cl)cc3C(F)(F)F)c2)C1=O` (centres unmarked) [Compound 341, (5Z)-5-({1-[4-Chloro-2-(trifluoromethyl)benzyl]-1H-indazol-5-yl}methylidene)-3-(3-oxopiperidin-4-yl)-1,3-thiazolidine-2,4-dione] registered an EC50 of 39 nM.

As for `O=C1S/C(=C\c2ccc3c(cnn3Cc3ccc(Cl)cc3C(F)(F)F)c2)C(=O)N1C1CN2CCC1CC2` (centres unmarked) [Compound 112, (5Z)-3-(1-Azabicyclo[2.2.2]oct-3-yl)-5-({1-[4-chloro-2-(trifluoromethyl)benzyl]-1H-indazol-5-yl}methylidene)-1,3-thiazolidine-2,4-dione], the EC50 came to 22 nM.

`O=C1S/C(=C\c2ccc3c(cnn3Cc3ccc(Cl)cc3C(F)(F)F)c2)C(=O)N1C1CNC1` [Compound 102, (5Z)-3-Azetidin-3-yl-5-({1-[4-chloro-2-(trifluoromethyl)benzyl]-1H-indazol-5-yl}methylidene)-1,3-thiazolidine-2,4-dione]: the EC50 was determined as 37 nM.

As to `O=C1S/C(=C\c2ccc3c(cnn3Cc3ccc(Cl)cc3C(F)(F)F)c2)C(=O)N1Cc1nc[nH]n1` [Compound 90, (5Z)-5-({1-[4-Chloro-2-(trifluoromethyl)benzyl]-1H-indazol-5-yl}methylidene)-3-(1H-1,2,4-triazol-3-ylmethyl)-1,3-thiazolidine-2,4-dione], the EC50 was 28 nM.

`O=C(O)C(Cc1c[nH]cn1)N1C(=O)S/C(=C\c2ccc3c(cnn3Cc3ccc(Cl)cc3C(F)(F)F)c2)C1=O` (centres unmarked) [Compound 229, 2-[(5Z)-5-({1-[4-Chloro-2-(trifluoromethyl)benzyl]-1H-indazol-5-yl}methylidene)-2,4-dioxo-1,3-thiazolidin-3-yl]-3-(1H-imidazol-4-yl)propanoic acid] had an EC50 of 76 nM.

Compound `COc1ccc(Cn2ncc3cc(/C=C4\SC(=O)N(CCN5CCCC5)C4=O)ccc32)c(C(F)(F)F)c1` [Compound 17, (5Z)-5-({1-[4-Methoxy-2-(trifluoromethyl)benzyl]-1H-indazol-5-yl}methylidene)-3-(2-pyrrolidin-1-ylethyl)-1,3-thiazolidine-2,4-dione] came in with an EC50 of 46 nM.

On to `COCCN1C[C@H](F)C[C@H]1CN1C(=O)S/C(=C\c2ccc3c(cnn3Cc3ccc(Cl)cc3C(F)(F)F)c2)C1=O` [Compound 190, (5Z)-5-({1-[4-Chloro-2-(trifluoromethyl)benzyl]-1H-indazol-5-yl}methylidene)-3-{[(2S,4R)-4-fluoro-1-(2-methoxyethyl)pyrrolidin-2-yl]methyl}-1,3-thiazolidine-2,4-dione], for which the EC50 was 410 nM.
